By EC50 is commonly meant the midpoint of the concentration-response curve.

The structures appear in SMILES notation. Non-standard residues stand in square brackets, D forms with d. Residues, ends and D or L forms follow the SMILES beside them. *: point of attachment. PEG8 = NCCOCCOCCOCCOCCOCCOCCOCCOCCC(=O)O; Palmitoyl = CCCCCCCCCCCCCCCC(=O)*; Tic = O=C(O)[C@@H]1Cc2ccccc2CN1

The text below walks through data of US11254720B2, “Methods and systems for designing and/or characterizing soluble lipidated ligand agents” (Tufts Medical Center, priority 2013, dated 2022).

For assay [1], the target named is T1, human CMKLR1 (Homo sapiens, UniProt Q99788).
T1 sequence (Q99788 1-373): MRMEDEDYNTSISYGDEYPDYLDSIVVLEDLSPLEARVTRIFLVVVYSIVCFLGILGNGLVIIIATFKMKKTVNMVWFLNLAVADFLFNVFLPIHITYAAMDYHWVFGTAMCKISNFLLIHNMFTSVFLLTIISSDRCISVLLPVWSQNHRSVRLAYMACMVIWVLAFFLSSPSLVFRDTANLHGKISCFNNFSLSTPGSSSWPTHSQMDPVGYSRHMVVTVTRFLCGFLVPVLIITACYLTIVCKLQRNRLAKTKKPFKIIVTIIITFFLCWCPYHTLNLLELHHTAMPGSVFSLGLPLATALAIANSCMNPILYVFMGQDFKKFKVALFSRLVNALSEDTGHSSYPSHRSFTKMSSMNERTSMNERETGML
As to the kind of experiment: SRE-luciferase reporter gene assay in transfected HEK293 cells. As to conditions: pEC50, Human CMKLR1, no wash; mean ± S.E.M. (In a reporter assay the amount or activity of a reporter protein is the signal.)
Method: (§1) Receptor-mediated signaling was assessed as previously described. Briefly, HEK293 cells were plated at a density of 6,000 cells/well into 96-well clear-bottom plates and grown to ˜80% confluence. […] Expression of Gq5i66V directs signaling of the Gαi-coupled chemerin receptor to stimulation of a Gαq-dependent SRE5x-Luc-PEST reporter gene. For experiments investigating the agonist function of soluble and lipidated peptides, tethered ligand cDNA was not included in the transfection mixture. Twenty four hours after transfection, cells were stimulated with or without peptide agonist for 4 hours in serum-free medium. […] Following ligand stimulation, the media was aspirated and luciferase activity measured using SteadyLite reagent and quantified using a TopCount NTX. A β-galactosidase assay was then performed following assessment of luminescence. Cleavage of 2-nitrophenyl β-D-galactopyranoside substrate was quantified after incubation of cell lysates at 37° C. for 30 to 60 minutes by measuring the optical density at 420 nm on a SpectraMax microplate reader. Luciferase reporter gene activities were normalized to corresponding β-galactosidase activity controls.
(§2) HEK293 cells were transiently transfected with cDNAs encoding i) human or mouse CMKLR1, ii) a SRE5x-Luc reporter gene, iii) a Gαq5i66V chimera, and iv) a β-galactosidase control. Twenty-four hours after transfection, cells were stimulated with ligand for 4 hours and luciferase activity determined as described in Experimental Procedures. Luciferase activity was normalized relative to the maximal value observed using saturating concentrations of the corresponding soluble ligand (=100%). […] As a next step, the effect of membrane anchoring on chemerin activity was examined. […] HEK293 cells were transiently transfected with cDNAs encoding i) various tethered ligands, ii) human or mouse CMKLR1, iii) a SRE5x-Luc reporter gene, iv) aGαq5i66V chimera, and v) a β-galactosidase control. Twenty-four hours after transfection, luciferase activity was determined as described in Experimental Procedures.
(§3) HEK293 cells were transiently transfected with cDNAs encoding i) 8 ng of various tethered ligands, ii) human or mouse CMKLR1, iii) a SRE5x-Luc reporter gene, iv) a Gαq5i66V chimera, and v) a β-galactosidase control. Twenty-four hours after transfection, luciferase activity was determined as described in Experimental Procedures.

The next assay deals with Adult CD1 mice. The experiment in a line: Chronic constriction injury neuropathic pain model, von Frey and acetone tests. The class given is in vivo, mouse. The following applies: intrathecal 100 pmol, 1 week after nerve injury. The text has this:
Intrathecal injection of 1-stable chem (100 pmol), 1 week after CCI, reduces CCI-induced mechanical hypersensitivity (panels A+C) and cold allodynia (panel E). Intrathecal injection of ResolvinE1 (RvE1)(100 pmol), 1 week after CCI, reduces CCI-induced mechanical hypersensitivity (panels B+D) and cold allodynia (panel F). BL=baseline before surgery.
Adult CD1 mice (male, 25-35 g) were used for behavioral studies. Mice were group-housed and kept under a 12-hour light/dark cycle. […]
Nerve injury-induced mechanical allodynia and hypersensitivity were assessed by von Frey hairs as previously described (see Xu et al., Resolvin E1 inhibits neuropathic pain and spinal cord microglial activation following peripheral nerve injury, 2013, J. Neuroimmune Pharmacol, 8: 37-41). […] The 50% paw withdrawal threshold (PWT) was determined using Dixon's up-down method. For paw withdrawal frequency (PWF), the same von Frey hair (0.16 g) was applied 10 times and the number of positive responses to the stimulations counted. A positive response was scored if the mouse sharply withdrew the paw or flinched upon removal of the stimulus. […] In brief, a drop of acetone was placed against the plantar paw of the mouse and the mouse's response monitored for the next 20 seconds. […]

For the next assay, the system named is Male FVB mice. As to the kind of experiment: Ovalbumin sensitization and aerosol challenge model of allergic airway inflammation. The assay is classed as in vivo, mouse. The following applies: Day 18. The text has this:
Representative photographs are taken at 20× magnification. (C) Lung tissue sections at Day 18 were obtained from fixed, paraffin-embedded lung tissue stained with hematoxylin and eosin. Representative photographs are taken at both 20× and 40×. (D) Total BALF cells and leukocyte subsets were quantified on Day 18 and compared between mice receiving DMSO or l-Stable Chem. Data are representative of the mean±S.E.M. from n=3-8 mice per group. Comparison of DMSO control to l-Stable Chem: *p<0.05.
Male FVB mice age 5-7 weeks (Charles River Laboratories) were housed under viral antibody-free conditions. Ovalbumin (OVA) sensitization and drug administration were performed as previously described with slight modifications. Briefly, mice were sensitized with intraperitoneal injection of 10 μg OVA (Grade III: Sigma) on days 0 and 7. On days 14, 15, 16, and 17, mice received a 25 minute aerosol challenge of 6% (wt/vol) OVA each day. On each of these days, 30 min prior to OVA challenge, mice were given 20 μL of lipidated stable chemerin (21 mM stock in DMSO diluted 1:100 in saline for a final concentration of 210 μM) by the intranasal route. Corresponding controls received DMSO diluted 1:100 in saline. On day 18 or 22, bronchoalveolar lavage fluid (BALF) was collected; animals were sacrificed for histological assessment. […] Cells in BALF were resuspended in PBS and counted with a hemocytometer; cytospins were done via cytocentrifugation (265 g; StatSpin). Cells from the cytospin were stained with Wright-Giemsa stain (Sigma) for quantification of leukocyte subsets. At least 200 cells were counted per slide. […] On the 5th day (corresponding to day 18), mice were sacrificed and BALF collected and analyzed as described above.
Given the high potency, stability, and wash resistance of the lipidated stable chemerin analog, the anti-inflammatory activity of this compound in vivo was examined. […] Markers of inflammation were assessed at day 18 (time course: FIG. 6A).

In assay [2] the target is T2, mouse CMKLR1 (Mus musculus, UniProt P97468).
T2 sequence (P97468 1-371): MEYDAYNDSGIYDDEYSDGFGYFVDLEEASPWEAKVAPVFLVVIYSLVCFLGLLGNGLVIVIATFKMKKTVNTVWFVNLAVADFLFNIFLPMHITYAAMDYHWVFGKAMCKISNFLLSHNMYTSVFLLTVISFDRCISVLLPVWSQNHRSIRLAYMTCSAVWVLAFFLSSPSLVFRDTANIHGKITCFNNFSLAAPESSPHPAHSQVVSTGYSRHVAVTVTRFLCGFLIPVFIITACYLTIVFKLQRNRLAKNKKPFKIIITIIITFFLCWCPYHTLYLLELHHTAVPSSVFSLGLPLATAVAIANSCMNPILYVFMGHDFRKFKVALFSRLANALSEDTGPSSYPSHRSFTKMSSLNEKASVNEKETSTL
The experiment in a line: Washout experiments (serial washes after 15 min ligand, luciferase readout).
Method: (§4) Agonist activity was compared with and without serial washings shortly after addition of ligand. Briefly, HEK293 cells were plated and transfected as described above with the addition of a poly-L-lysine plate pretreatment step to enhance cell adhesion. Twenty-four hours after transfection, cells were stimulated with increasing concentrations of agonist for 15 minutes at 37° C. Selected wells were washed three times with serum-free media. Plates were then incubated for an additional 4 hours. Receptor mediated signaling was assessed using a luciferase based assay as described above.
(§5) HEK293 cells were transiently transfected with cDNAs encoding i) human or mouse CMKLR1, ii) a SRE5x-Luc reporter gene, iii) a Gαq5i66V chimera, and iv) a β-galactosidase control. Twenty-four hours after transfection, cells were stimulated with increasing concentrations of various ligands for 15 minutes. Selected wells were then washed three times with serum-free media and plates were further incubated for 4 hours.

Assay [3] concerns HEK293 cells transfected with vector control (pcDNA1.1). As to the kind of experiment: Luciferase reporter assay in cells transfected with vector control. As to conditions: cells transfected with pcDNA1.1 vector control. The assay is classed as cell-based, human.
Method: as §1
In assay [4] the target is T2, mouse CMKLR1. The experiment in a line: SRE-luciferase reporter gene assay in transfected HEK293 cells.
Method: as §1, §2, §3
Assay [5] addresses T1, human CMKLR1. The experiment in a line: Washout experiments (serial washes after 15 min ligand, luciferase readout).
Method: as §4, §5
Where [6] appears, read: three washes after 15 min ligand.

On to `CCCCCCCCCCCCCCCC(=O)NCCOCCOCCOCCOCCOCCOCCOCCOCCC(=O)NCC(=O)NCC(=O)N[C@H](Cc1ccc(O)cc1)C(=O)N[C@@H](Cc1ccccc1)C(=O)N[C@@H](CC(C)C)C(=O)N1CCC[C@H]1C(=O)N[C@H](CO)C(=O)N[C@@H](CCC(N)=O)C(=O)N[C@@H](Cc1ccccc1)C(=O)N[C@H](C)C(=O)N1Cc2ccccc2C[C@H]1C(=O)N[C@@H](CO)C(=O)O` [I-Stable Chem] ({Palmitoyl-PEG8}-GG[dY]FLP[dS]QF[dA][Tic]S-OH), for which the EC50 at human CMKLR1 [1] was 2.57 nM; at mouse CMKLR1 [2] (pEC50, Mouse CMKLR1, + wash, washed three times after 15 min ligand, then 4 hours), 11 nM; on mouse CMKLR1 [4] (EC50 (nM), Mouse CMKLR1, no wash, HEK293 luciferase reporter), 2 nM; at mouse CMKLR1 [4] (pEC50, Mouse CMKLR1, no wash, mean ± S.E.M.) it was 2 nM; at human CMKLR1 [5] (pEC50, Human CMKLR1, + wash, washed three times after 15 min ligand, then 4 hours) it was 25.1 nM. Moreover, the “Duration of significant reduction of established mechanical and cold allodynia” value with Adult CD1 mice is “greater than 24 hours”. Besides, in the assay with Male FVB mice (in comparison to DMSO controls), the “Lung inflammatory response (H+E staining)” value is “Less leukocyte infiltration and fewer reactive bronchial epithelial cells”. Further, the “Number of eosinophils in bronchoalveolar lavage fluid” value with Male FVB mice (intranasal, 30 min prior to OVA challenge, versus DMSO) is reported as “decreased”. Further, the “Airway epithelial mucus (PAS staining)” value with Male FVB mice (versus DMSO control) is recorded as “most pronounced attenuation of mucus metaplasia”. Also, the “Agonist activity after serial washes, mouse CMKLR1” value at mouse CMKLR1 [2] (setting [6]) is given as “persisted despite washing”. Moreover, the “Agonist activity without CMKLR1 expression” value in assay [3] is “no agonist activity”. Also, the “Agonist activity after serial washes, human CMKLR1” value on human CMKLR1 [5] (setting [6]) is listed as “persisted despite washing”.
